Measured values as given in patent US20160289186A1, “FLUOROMETHYL-SUBSTITUTED PYRROLE CA[…]” (Grunenthal GmbH, priority 2013, published 2016).

Biological target: T1, Human CaV2.2 channels (Homo sapiens, UniProt Q00975)
T1 construct: expressed in transfected cells; host or cells: HEK293
Assay: Fluorescent (FLIPR) assay for CaV2.2 channels using potassium depolarization to induce channel opening
Format: cell-based
Details: 3 μM compound; 30 mM KCl assay buffer (inactivated channel state); HEK293 cells stably expressing human CaV2.2; read-out: Activity Category: %-Inhib (CaV2.2) @3 μM @30 mM KCl
In short: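 HEK293 cells stably co-expressing human CaV2.2 with α2δ and β subunits plus Kir2.3, Fluo-4 loaded; compounds preincubated 15 min at 25 °C in 1 mM or 30 mM KCl buffer (inactivated state), pH 7.4. Depolarized by KCl addition; baseline-normalized peak fluorescence (ex 480/em 535 nm) gave inhibition.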

T1 sequence (Q00975 whole entry): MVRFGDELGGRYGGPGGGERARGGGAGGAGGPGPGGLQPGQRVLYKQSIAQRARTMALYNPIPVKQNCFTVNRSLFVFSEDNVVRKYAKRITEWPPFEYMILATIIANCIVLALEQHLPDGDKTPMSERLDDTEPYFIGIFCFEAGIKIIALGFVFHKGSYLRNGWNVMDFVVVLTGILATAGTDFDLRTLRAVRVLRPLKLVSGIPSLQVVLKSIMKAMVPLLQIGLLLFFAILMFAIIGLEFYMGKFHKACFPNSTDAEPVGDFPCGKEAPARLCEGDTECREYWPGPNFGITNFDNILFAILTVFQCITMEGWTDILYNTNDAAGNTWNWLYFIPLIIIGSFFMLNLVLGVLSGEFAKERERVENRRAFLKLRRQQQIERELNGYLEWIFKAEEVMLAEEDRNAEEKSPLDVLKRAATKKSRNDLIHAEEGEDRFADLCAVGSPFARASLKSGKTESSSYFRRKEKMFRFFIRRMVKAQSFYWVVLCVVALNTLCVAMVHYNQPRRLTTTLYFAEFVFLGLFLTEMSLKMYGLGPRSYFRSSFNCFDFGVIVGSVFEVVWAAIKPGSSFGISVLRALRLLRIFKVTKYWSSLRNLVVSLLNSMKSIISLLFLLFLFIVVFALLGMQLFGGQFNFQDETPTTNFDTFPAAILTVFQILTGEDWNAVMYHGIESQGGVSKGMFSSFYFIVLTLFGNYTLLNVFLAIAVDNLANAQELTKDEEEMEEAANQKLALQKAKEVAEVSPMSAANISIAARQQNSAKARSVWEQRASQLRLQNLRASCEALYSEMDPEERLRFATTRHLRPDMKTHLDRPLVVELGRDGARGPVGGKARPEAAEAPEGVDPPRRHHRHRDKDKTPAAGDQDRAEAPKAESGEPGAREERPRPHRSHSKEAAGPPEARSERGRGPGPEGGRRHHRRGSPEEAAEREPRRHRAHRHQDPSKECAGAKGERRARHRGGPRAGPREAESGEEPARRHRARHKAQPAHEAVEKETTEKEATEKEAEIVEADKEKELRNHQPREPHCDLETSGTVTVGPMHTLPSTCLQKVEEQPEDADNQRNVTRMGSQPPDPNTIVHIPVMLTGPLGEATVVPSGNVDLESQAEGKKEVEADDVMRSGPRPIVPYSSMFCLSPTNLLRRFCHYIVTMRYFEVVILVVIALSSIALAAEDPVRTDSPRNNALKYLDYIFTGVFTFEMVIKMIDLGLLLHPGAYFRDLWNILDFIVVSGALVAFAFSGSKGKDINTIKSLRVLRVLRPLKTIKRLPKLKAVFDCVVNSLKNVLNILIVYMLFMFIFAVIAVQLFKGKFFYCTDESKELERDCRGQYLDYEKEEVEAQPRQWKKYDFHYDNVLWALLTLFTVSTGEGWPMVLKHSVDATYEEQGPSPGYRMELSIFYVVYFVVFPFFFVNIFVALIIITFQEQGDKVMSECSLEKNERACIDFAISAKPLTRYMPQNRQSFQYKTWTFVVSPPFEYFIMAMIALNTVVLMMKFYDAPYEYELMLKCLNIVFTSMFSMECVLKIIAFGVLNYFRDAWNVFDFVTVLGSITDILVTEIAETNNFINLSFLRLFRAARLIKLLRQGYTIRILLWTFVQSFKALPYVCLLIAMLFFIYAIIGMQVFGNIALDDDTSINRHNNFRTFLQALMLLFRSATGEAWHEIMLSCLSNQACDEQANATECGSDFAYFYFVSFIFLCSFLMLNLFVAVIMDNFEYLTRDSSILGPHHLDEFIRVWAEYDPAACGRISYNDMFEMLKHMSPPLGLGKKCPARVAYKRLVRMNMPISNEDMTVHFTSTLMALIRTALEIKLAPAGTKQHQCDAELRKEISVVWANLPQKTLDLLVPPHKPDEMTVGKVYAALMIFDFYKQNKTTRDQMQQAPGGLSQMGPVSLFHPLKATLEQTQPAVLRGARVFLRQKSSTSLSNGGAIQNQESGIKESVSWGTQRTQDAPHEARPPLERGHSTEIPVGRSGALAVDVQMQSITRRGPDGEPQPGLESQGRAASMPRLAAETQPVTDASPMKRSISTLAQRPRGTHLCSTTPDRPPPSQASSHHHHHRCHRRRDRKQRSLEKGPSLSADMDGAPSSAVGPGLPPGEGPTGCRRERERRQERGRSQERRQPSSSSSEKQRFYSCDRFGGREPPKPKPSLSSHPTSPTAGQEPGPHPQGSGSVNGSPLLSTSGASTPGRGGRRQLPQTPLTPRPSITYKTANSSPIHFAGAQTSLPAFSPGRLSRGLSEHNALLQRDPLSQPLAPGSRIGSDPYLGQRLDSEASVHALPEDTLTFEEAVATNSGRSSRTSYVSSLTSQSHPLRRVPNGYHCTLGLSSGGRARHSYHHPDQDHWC
T1 sequence (P54284 whole entry, further chain): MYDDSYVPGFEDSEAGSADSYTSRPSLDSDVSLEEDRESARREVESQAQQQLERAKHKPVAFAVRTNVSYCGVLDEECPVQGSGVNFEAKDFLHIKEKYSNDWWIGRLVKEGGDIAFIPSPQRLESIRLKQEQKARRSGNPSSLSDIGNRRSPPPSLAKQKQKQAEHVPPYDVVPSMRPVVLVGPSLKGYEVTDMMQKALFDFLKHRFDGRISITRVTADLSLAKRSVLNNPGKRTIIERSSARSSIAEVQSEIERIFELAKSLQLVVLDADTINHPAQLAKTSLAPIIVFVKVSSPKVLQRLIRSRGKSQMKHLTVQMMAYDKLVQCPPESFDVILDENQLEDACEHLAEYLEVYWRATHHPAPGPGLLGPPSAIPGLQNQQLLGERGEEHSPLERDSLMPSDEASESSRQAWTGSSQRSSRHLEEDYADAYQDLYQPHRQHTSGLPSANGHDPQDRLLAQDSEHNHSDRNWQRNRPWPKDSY
T1 sequence (P54289 25-1103, further chain): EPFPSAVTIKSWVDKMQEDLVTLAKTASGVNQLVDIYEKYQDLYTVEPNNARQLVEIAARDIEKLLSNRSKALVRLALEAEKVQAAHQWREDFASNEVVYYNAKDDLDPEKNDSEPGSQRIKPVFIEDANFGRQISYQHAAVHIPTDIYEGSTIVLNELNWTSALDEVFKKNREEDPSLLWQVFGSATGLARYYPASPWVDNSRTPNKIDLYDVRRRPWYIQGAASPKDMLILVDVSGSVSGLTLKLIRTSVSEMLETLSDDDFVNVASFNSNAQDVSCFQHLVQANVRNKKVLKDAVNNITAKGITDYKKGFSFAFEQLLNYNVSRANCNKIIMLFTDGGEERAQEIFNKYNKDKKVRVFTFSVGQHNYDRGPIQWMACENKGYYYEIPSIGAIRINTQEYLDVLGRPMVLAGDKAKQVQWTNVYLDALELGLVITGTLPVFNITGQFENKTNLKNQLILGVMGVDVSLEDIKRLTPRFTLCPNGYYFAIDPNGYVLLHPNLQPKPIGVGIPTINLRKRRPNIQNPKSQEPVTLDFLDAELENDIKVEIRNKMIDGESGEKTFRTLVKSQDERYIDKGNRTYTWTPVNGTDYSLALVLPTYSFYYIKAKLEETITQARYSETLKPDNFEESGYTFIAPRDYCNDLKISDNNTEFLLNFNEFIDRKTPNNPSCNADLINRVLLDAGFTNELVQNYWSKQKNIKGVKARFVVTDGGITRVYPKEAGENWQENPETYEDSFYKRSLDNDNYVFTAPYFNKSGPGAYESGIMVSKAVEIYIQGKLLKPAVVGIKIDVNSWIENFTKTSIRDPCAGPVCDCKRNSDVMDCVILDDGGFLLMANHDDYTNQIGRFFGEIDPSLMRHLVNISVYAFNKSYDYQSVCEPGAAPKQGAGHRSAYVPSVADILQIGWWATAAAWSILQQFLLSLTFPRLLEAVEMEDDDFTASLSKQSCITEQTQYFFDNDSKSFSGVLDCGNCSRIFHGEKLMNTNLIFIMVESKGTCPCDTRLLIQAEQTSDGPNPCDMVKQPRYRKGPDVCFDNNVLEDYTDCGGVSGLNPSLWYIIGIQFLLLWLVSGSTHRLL

Structure (SMILES) | inhibition at 3 µM [%]
CN(CC(C)(C)C)C(=O)c1c(-c2ccc(Cl)cc2)cc(C(F)(F)F)n1CC1CCCO1 (centres unmarked) [Example 083, 3-(4-Chlorophenyl)-N-(2,2-dimethyl-propyl)-N-methyl-1-(tetrahydro-furan-2-yl-methyl)-5-(trifluoromethyl)-1H-pyrrole-2-carboxylic acid amide] | 75 to 95
Cc1c(-c2ccc(Cl)cc2)c(C(=O)N2CCOC(C)(C)C2)n(CC2CC2)c1C(F)(F)F [Example 084, [3-(4-Chlorophenyl)-1-(cyclopropyl-methyl)-4-methyl-5-(trifluoromethyl)-1H-pyrrol-2-yl]-(2,2-dimethyl-morpholin-4-yl)-methanone] | > 95
Cc1c(-c2ccc(Cl)cc2)c(C(=O)N2CCOC(C)(C)C2)n(CC2CCC2)c1C(F)(F)F [Example 085, [3-(4-Chlorophenyl)-1-(cyclobutyl-methyl)-4-methyl-5-(trifluoromethyl)-1H-pyrrol-2-yl]-(2,2-dimethyl-morpholin-4-yl)-methanone] | 75 to 95
Cc1c(-c2ccc(Cl)cc2)c(C(=O)N2CCOCC2)n(CC#CC2CC2)c1C(F)(F)F [Example 086, [3-(4-Chlorophenyl)-1-(3-cyclopropyl-prop-2-ynyl)-4-methyl-5-(trifluoromethyl)-1H-pyrrol-2-yl]-morpholin-4-yl-methanone] | > 95
Cc1c(-c2ccc(Cl)cc2)c(C(=O)N2CCOCC2)n(CC2(C)CC2)c1C(F)(F)F [Example 087, [3-(4-Chlorophenyl)-4-methyl-1-[(1-methyl-cyclopropyl)-methyl]-5-(trifluoromethyl)-1H-pyrrol-2-yl]-morpholin-4-yl-methanone] | > 95
CN(CC(C)(C)C)C(=O)c1c(-c2ccc(Cl)cc2)cc(C(F)(F)F)n1CC1(N)CC1 [Example 088, 1-[(1-Amino-cyclopropyl)-methyl]-3-(4-chlorophenyl)-N-(2,2-dimethyl-propyl)-N-methyl-5-(trifluoromethyl)-1H-pyrrole-2-carboxylic acid amide] | 75 to 95
Cc1c(-c2ccc(Cl)cc2)c(C(=O)N2CCOCC2)n(CC2(O)CC2)c1C(F)(F)F [Example 089, [3-(4-Chlorophenyl)-1-[(1-hydroxy-cyclopropyl)-methyl]-4-methyl-5-(trifluoromethyl)-1H-pyrrol-2-yl]-morpholin-4-yl-methanone] | > 95
CN(CC(C)(C)C)C(=O)c1c(-c2ccc(Cl)cc2)cc(C(F)(F)F)n1CC1(O)CCCC1 [Example 090, 3-(4-Chlorophenyl)-N-(2,2-dimethyl-propyl)-1-[(1-hydroxy-cyclopentyl)-methyl]-N-methyl-5-(trifluoromethyl)-1H-pyrrole-2-carboxylic acid amide] | 75 to 95
CN(CC(C)(C)C)C(=O)c1c(-c2ccc(Cl)cc2)cc(C(F)(F)F)n1CC1CCCN1 (centres unmarked) [Example 091, 3-(4-Chlorophenyl)-N-(2,2-dimethyl-propyl)-N-methyl-1-(pyrrolidin-2-yl-methyl)-5-(trifluoromethyl)-1H-pyrrole-2-carboxylic acid amide] | > 95
Cc1c(-c2ccc(Cl)cc2)c(C(=O)N(C)CCS(C)(=O)=O)n(CC2(N)CC2)c1C(F)(F)F [Example 093, 1-[(1-Amino-cyclopropyl)-methyl]-3-(4-chlorophenyl)-N,4-dimethyl-N-(2-methylsulfonyl-ethyl)-5-(trifluoromethyl)-1H-pyrrole-2-carboxylic acid amide] | 75 to 95
Cc1c(-c2ccc(Cl)cc2)c(C(=O)N(C)CCS(C)(=O)=O)n(CC2(O)CCCC2)c1C(F)(F)F [Example 094, 3-(4-Chlorophenyl)-1-[(1-hydroxy-cyclopentyl)-methyl]-N,4-dimethyl-N-(2-methylsulfonyl-ethyl)-5-(trifluoromethyl)-1H-pyrrole-2-carboxylic acid amide] | > 95
Cc1c(-c2ccc(Cl)cc2)c(C(=O)N2CCOCC2)n(CC2(N)CC2)c1C(F)(F)F [Example 095, [1-[(1-Amino-cyclopropyl)-methyl]-3-(4-chlorophenyl)-4-methyl-5-(trifluoromethyl)-1H-pyrrol-2-yl]-morpholin-4-yl-methanone] | 75 to 95
Cc1c(-c2ccc(Cl)cc2)c(C(=O)N2CCOCC2)n(CC2(O)CCCC2)c1C(F)(F)F [Example 096, [3-(4-Chlorophenyl)-1-[(1-hydroxy-cyclopentyl)-methyl]-4-methyl-5-(trifluoromethyl)-1H-pyrrol-2-yl]-morpholin-4-yl-methanone] | 75 to 95
Cc1c(-c2ccc(Cl)cc2)c(C(=O)N2CCOCC2)n(CC2CCOCC2)c1C(F)(F)F [Example 097, [3-(4-Chlorophenyl)-4-methyl-1-(tetrahydro-pyran-4-yl-methyl)-5-(trifluoromethyl)-1H-pyrrol-2-yl]-morpholin-4-yl-methanone] | > 95
Cc1c(-c2ccc(Cl)cc2)c(C(=O)N2CCOCC2)n(CCN2CC(F)(F)C2)c1C(F)(F)F [Example 098, [3-(4-Chlorophenyl)-1-[2-(3,3-difluoro-azetidin-1-yl)-ethyl]-4-methyl-5-(trifluoromethyl)-1H-pyrrol-2-yl]-morpholin-4-yl-methanone] | > 95
Cc1c(-c2ccc(Cl)cc2)c(C(=O)N2CCOCC2)n(CCS(C)(=O)=O)c1C(F)(F)F [Example 099, [3-(4-Chlorophenyl)-4-methyl-1-(2-methylsulfonyl-ethyl)-5-(trifluoromethyl)-1H-pyrrol-2-yl]-morpholin-4-yl-methanone] | 40 to 75
CN(CC(C)(C)C)C(=O)c1c(-c2ccc(Cl)cc2)cc(C(F)(F)F)n1CC1(C#N)CC1 [Example 100, 3-(4-Chlorophenyl)-1-[(1-cyano-cyclopropyl)-methyl]-N-(2,2-dimethyl-propyl)-N-methyl-5-(trifluoromethyl)-1H-pyrrole-2-carboxylic acid amide] | 75 to 95
Cc1c(-c2ccc(Cl)cc2)c(C(=O)N2CCOC(C)(C)C2)n(C)c1C(F)(F)F [Example 102, [3-(4-Chlorophenyl)-1,4-dimethyl-5-(trifluoromethyl)-1H-pyrrol-2-yl]-(2,2-dimethyl-morpholin-4-yl)-methanone] | 75 to 95
CCn1c(C(=O)N2CCOC(C)(C)C2)c(-c2ccc(Cl)cc2)c(C)c1C(F)(F)F [Example 103, [3-(4-Chlorophenyl)-1-ethyl-4-methyl-5-(trifluoromethyl)-1H-pyrrol-2-yl]-(2,2-dimethyl-morpholin-4-yl)-methanone] | 75 to 95
Cc1c(-c2ccc(Cl)cc2)c(C(=O)N2CC3CC2CO3)n(CC(C)C)c1C(F)(F)F (centres unmarked) [Example 104, [3-(4-Chlorophenyl)-4-methyl-1-(2-methyl-propyl)-5-(trifluoromethyl)-1H-pyrrol-2-yl]-(2-oxa-5-azabicyclo[2.2.1]heptan-5-yl)-methanone] | > 95
Cc1c(-c2ccc(Cl)cc2)c(C(=O)N(C)CC(C)(C)C(N)=O)n(C(C)C)c1C(F)(F)F [Example 105, N-(2-Carbamoyl-2-methyl-propyl)-3-(4-chlorophenyl)-1-isopropyl-N,4-dimethyl-5-(trifluoromethyl)-1H-pyrrole-2-carboxylic acid amide] | 75 to 95
Cc1c(-c2ccc(Cl)cc2)c(C(=O)N(C)CC(C)(C)C#N)n(C(C)C)c1C(F)(F)F [Example 106, 3-(4-Chlorophenyl)-N-(2-cyano-2-methyl-propyl)-1-isopropyl-N,4-dimethyl-5-(trifluoromethyl)-1H-pyrrole-2-carboxylic acid amide] | 75 to 95
Cc1cc(CN(C)C(=O)c2c(-c3ccc(Cl)cc3)c(C)c(C(F)(F)F)n2C(C)C)no1 [Example 107, 3-(4-Chlorophenyl)-1-isopropyl-N,4-dimethyl-N-[(5-methyl-isoxazol-3-yl)-methyl]-5-(trifluoromethyl)-1H-pyrrole-2-carboxylic acid amide] | > 95
Cc1c(-c2ccc(Cl)cc2)c(C(=O)N(C)C(C)C)n(C(C)C)c1C(F)(F)F [Example 108, 3-(4-Chlorophenyl)-N,1-diisopropyl-N,4-dimethyl-5-(trifluoromethyl)-1H-pyrrole-2-carboxylic acid amide] | > 95
Cc1c(-c2ccc(Cl)cc2)c(C(=O)N(C)C(C)C)n(CC(C)C)c1C(F)(F)F [Example 109, 3-(4-Chlorophenyl)-N-isopropyl-N,4-dimethyl-1-(2-methyl-propyl)-5-(trifluoromethyl)-1H-pyrrole-2-carboxylic acid amide] | 75 to 95
Cc1c(-c2ccc(Cl)cc2)c(C(=O)N(C)CCS(C)(=O)=O)n(C(C)C)c1C(F)(F)F [Example 110, 3-(4-Chlorophenyl)-1-isopropyl-N,4-dimethyl-N-(2-methylsulfonyl-ethyl)-5-(trifluoromethyl)-1H-pyrrole-2-carboxylic acid amide] | 75 to 95
Cc1c(-c2ccc(Cl)cc2)c(C(=O)N(C)Cc2ccnn2C)n(C(C)C)c1C(F)(F)F [Example 111, 3-(4-Chlorophenyl)-1-isopropyl-N,4-dimethyl-N-[(2-methyl-2H-pyrazol-3-yl)-methyl]-5-(trifluoromethyl)-1H-pyrrole-2-carboxylic acid amide] | 75 to 95
Cc1c(-c2ccc(Cl)cn2)c(C(=O)N2CCOC(C)(C)C2)n(C(C)C)c1C(F)(F)F [Example 112, [3-(5-Chloro-pyridin-2-yl)-1-isopropyl-4-methyl-5-(trifluoromethyl)-1H-pyrrol-2-yl]-(2,2-dimethyl-morpholin-4-yl)-methanone] | 40 to 75
Cc1cc(CN(C)C(=O)c2c(-c3ccc(Cl)cn3)c(C)c(C(F)(F)F)n2C(C)C)no1 [Example 113, 3-(5-Chloro-pyridin-2-yl)-1-isopropyl-N,4-dimethyl-N-[(5-methyl-isoxazol-3-yl)-methyl]-5-(trifluoromethyl)-1H-pyrrole-2-carboxylic acid amide] | 75 to 95
